Laboratory results taken from patent US7700637B2, “Organic compounds” (Novartis AG, priority 2003, dated 2010).

| Compound | melting point [°C] |
| --- | --- |
| Cc1oc(-c2ccccc2)nc1COc1ccc(S(=O)(=O)Nc2cccc(Cl)c2C(=O)O)cc1 [Compd 4-1, 6-Chloro-2-[4-(5-methyl-2-phenyl-oxazol-4-ylmethoxy)-benzenesulfonylamino]-benzoic acid] | 170 to 172 |
| Cc1oc(-c2ccccc2)nc1COc1ccc(S(=O)(=O)Nc2cc(-c3ccccc3)ccc2C(=O)O)cc1 [Compd 4-2, 3-[4-(5-Methyl-2-phenyl-oxazol-4-ylmethoxy)-benzenesulfonylamino]-biphenyl-4-carboxylic acid] | 75 to 77 |
| Cc1oc(-c2ccc(C(F)(F)F)cc2)nc1COc1ccc(S(=O)(=O)Nc2cc(Cl)ccc2C(=O)O)cc1 [Compd 4-3, 4-Chloro-2-{4-[5-methyl-2-(4-trifluoromethyl-phenyl)-oxazol-4-ylmethoxy]-benzene-sulfonylamino}benzoic acid] | 191 to 193 |
| Cc1oc(-c2ccccc2)nc1COc1ccc(S(=O)(=O)Nc2cccc(F)c2C(=O)O)cc1 [Compd 4-4, 6-Fluoro-2-[4-(5-methyl-2-phenyl-oxazol-4-ylmethoxy)-benzenesulfonylamino]-benzoic acid] | 203 to 205 |
| Cc1oc(-c2ccc(F)cc2)nc1COc1ccc(S(=O)(=O)Nc2cc(Cl)ccc2C(=O)O)cc1 [Compd 4-5, 4-Chloro-2-{4-[2-(4-fluoro-phenyl)-5-methyl-oxazol-4-ylmethoxy]-benzenesulfonylamino}-benzoic acid] | 223 to 225 |
| Cc1oc(-c2ccccc2)nc1COc1ccc(S(=O)(=O)Nc2cccc(C(F)(F)F)c2C(=O)O)cc1 [Compd 4-6, 2-[4-(5-Methyl-2-phenyl-oxazol-4-ylmethoxy)-benzenesulfonylamino]-6-trifluoromethyl-benzoic acid] | 197 to 198 |
| Cc1oc(-c2ccccc2)nc1COc1ccc(S(=O)(=O)Nc2cc(Cl)ccc2C(=O)O)cc1 [Compd 4-7, 4-Chloro-2-[4-(5-methyl-2-phenyl-oxazol-4-ylmethoxy)-benzenesulfonylamino]-benzoic acid] | 98 to 100 |
| Cc1oc(-c2ccc(C(F)(F)F)cc2)nc1COc1ccc(S(=O)(=O)Nc2ccccc2C(=O)O)cc1 [Compd 4-8, 2-{4-[5-Methyl-2-(4-trifluoromethyl-phenyl)-oxazol-4-ylmethoxy]-benzenesulfonylamino}-benzoic acid] | 195 |
| Cc1oc(-c2ccccc2)nc1COc1ccc(S(=O)(=O)Nc2cc(F)ccc2C(=O)O)cc1 [Compd 4-10, 4-Fluoro-2-[4-(5-methyl-2-phenyl-oxazol-4-ylmethoxy)-benzenesulfonylamino]-benzoic acid] | 212 to 214 |
| Cc1oc(-c2ccccc2)nc1COc1ccc(S(=O)(=O)Nc2ccccc2C(=O)O)cc1 [Compd 4-11, 2-[4-(5-Methyl-2-phenyl-oxazol-4-ylmethoxy)-benzenesulfonylamino]-benzoic acid] | 195 to 198 |
| Cc1ccc(C(=O)O)c(NS(=O)(=O)c2ccc(OCc3nc(-c4ccccc4)oc3C)cc2)c1 [Compd 4-12, 4-Methyl-2-[4-(5-methyl-2-phenyl-oxazol-4-ylmethoxy)-benzenesulfonylamino]-benzoic acid] | 207 to 208 |
| Cc1oc(-c2ccccc2)nc1COc1ccc(S(=O)(=O)Nc2ccc(F)cc2C(=O)O)cc1 [Compd 4-14, 5-Fluoro-2-[4-(5-methyl-2-phenyl-oxazol-4-ylmethoxy)-benzenesulfonylamino]-benzoic acid] | 213 to 215 |
| Cc1oc(-c2ccccc2)nc1COc1ccc(S(=O)(=O)Nc2ccc(Cl)cc2C(=O)O)cc1 [Compd 4-15, 5-Chloro-2-[4-(5-methyl-2-phenyl-oxazol-4-ylmethoxy)-benzenesulfonylamino]-benzoic acid] | 207 to 208 |
| COc1ccc(NS(=O)(=O)c2ccc(OCc3nc(-c4ccccc4)oc3C)cc2)c(C(=O)O)c1 [Compd 4-16, 5-Methoxy-2-[4-(5-methyl-2-phenyl-oxazol-4-ylmethoxy)-benzenesulfonylamino]-benzoic acid] | 190 to 194 |
| Cc1ccc(NS(=O)(=O)c2ccc(OCc3nc(-c4ccccc4)oc3C)cc2)c(C(=O)O)c1 [Compd 4-17, 5-Methyl-2-[4-(5-methyl-2-phenyl-oxazol-4-ylmethoxy)-benzenesulfonylamino]-benzoic acid] | 185 to 187 |
| CC(=O)Nc1ccc(NS(=O)(=O)c2ccc(OCc3nc(-c4ccccc4)oc3C)cc2)c(C(=O)O)c1 [Compd 4-18, 5-Acetylamino-2-[4-(5-methyl-2-phenyl-oxazol-4-ylmethoxy)-benzenesulfonylamino]-benzoic acid] | 89 to 90 |
| Cc1oc(-c2ccccc2)nc1CCOc1ccc(S(=O)(=O)Nc2cc(-c3ccccc3)ccc2C(=O)O)cc1 [Compd 4-19, 3-{4-[2-(5-Methyl-2-phenyl-oxazol-4-yl)-ethoxy]-benzenesulfonylamino}-biphenyl-4-carboxylic acid] | 177 to 179 |
| COc1ccc(NS(=O)(=O)c2ccc(OCCc3nc(-c4ccccc4)oc3C)cc2)c(C(=O)O)c1OC [Compd 4-20, 2,3-Dimethoxy-6-{4-[2-(5-methyl-2-phenyl-oxazol-4-yl)-ethoxy]-benzenesulfonyl-amino}benzoic acid] | 59 to 60 |

| Compound | melting point [°C] |
| --- | --- |
| Cc1oc(-c2ccccc2)nc1CCOc1ccc(S(=O)(=O)Nc2ccccc2C(=O)O)cc1 [Compd 4-21, 2-{4-[2-(5-Methyl-2-phenyl-oxazol-4-yl)-ethoxy]-benzenesulfonylamino}-benzoic acid] | 136 to 138 |
| COc1cc(NS(=O)(=O)c2ccc(OCc3nc(-c4ccccc4)oc3C)cc2)c(C(=O)O)cc1OC [Compd 4-24, 4,5-Dimethoxy-2-[4-(5-methyl-2-phenyl-oxazol-4-ylmethoxy)-benzenesulfonylamino]-benzoic acid] | 206 to 207 |
| Cc1cc(C)c(NS(=O)(=O)c2ccc(OCc3nc(-c4ccccc4)oc3C)cc2)c(C(=O)O)c1 [Compd 4-25, 3,5-Dimethyl-2-[4-(5-methyl-2-phenyl-oxazol-4-ylmethoxy)-benzenesulfonylamino]-benzoic acid] | 165 to 166 |
| Cc1oc(-c2ccccc2)nc1COc1ccc(S(=O)(=O)Nc2cc3ccccc3cc2C(=O)O)cc1 [Compd 4-26, 3-[4-(5-Methyl-2-phenyl-oxazol-4-ylmethoxy)-benzenesulfonylamino]-naphthalene-2-carboxylic acid] | 234 to 236 |
| O=C(NCc1ccc(C(F)(F)F)cc1)c1ccc(S(=O)(=O)Nc2ccccc2C(=O)O)cc1 [Compd 6-1, 2-[4-(4-Trifluoromethyl-benzylcarbamoyl)-benzenesulfonylamino]-benzoic acid] | 330 to 335 |
| COc1cc(OC)c(C(=O)O)c(OCc2ccc(OCCc3nc(-c4ccccc4)oc3C)cc2)c1 [Compd 21-1, 2,4-Dimethoxy-6-{4-[2-(5-methyl-2-phenyl-oxazol-4-yl)-ethoxy]-benzyloxy}-benzoic acid] | 58 to 60 |
| COc1cc(OC)c(C(=O)O)c(OCc2ccc(OCc3nc(-c4ccccc4)oc3C)cc2)c1 [Compd 21-2, 2,4-Dimethoxy-6-[4-(5-methyl-2-phenyl-oxazol-4-ylmethoxy)-benzyloxy]-benzoic acid] | 182 to 183 |
| CCCOc1cc(C)c(C(=O)O)c(OCc2ccc(OCc3nc(-c4ccccc4)oc3C)cc2)c1 [Compd 21-3, 2-Methyl-6-[4-(5-methyl-2-phenyl-oxazol-4-ylmethoxy)-benzyloxy]-4-propoxy-benzoic acid] | 182 to 183 |
| Cc1oc(-c2ccccc2)nc1CCOc1ccc(COc2cc(C(F)(F)F)cc(C(F)(F)F)c2C(=O)O)cc1 [Compd 21-4, 2-{4-[2-(5-Methyl-2-phenyl-oxazol-4-yl)-ethoxy]-benzyloxy}-4,6-bis-trifluoromethyl-benzoic acid] | 162 to 163 |
| Cc1oc(-c2ccccc2)nc1COc1ccc(COc2cc(C(F)(F)F)cc(C(F)(F)F)c2C(=O)O)cc1 [Compd 21-5, 2-[4-(5-Methyl-2-phenyl-oxazol-4-ylmethoxy)-benzyloxy]-4,6-bis-trifluoromethyl-benzoic acid] | 190 to 191 |
| Cc1oc(-c2ccccc2)nc1COc1ccc(COc2cccc(F)c2C(=O)O)cc1 [Compd 21-6, 2-Fluoro-6-[4-(5-methyl-2-phenyl-oxazol-4-ylmethoxy)-benzyloxy]-benzoic acid] | 167 to 168 |
| Cc1cc(OC(C)C)cc(OCc2ccc(OCCc3nc(-c4ccccc4)oc3C)cc2)c1C(=O)O [Compd 21-7, 4-Isopropoxy-2-methyl-6-{4-[2-(5-methyl-2-phenyl-oxazol-4-yl)-ethoxy]-benzyloxy}-benzoic acid] | 157 to 158 |
| Cc1oc(-c2ccccc2)nc1CCOc1ccc(COc2cccc(F)c2C(=O)O)cc1 [Compd 21-8, 2-Fluoro-6-{4-[2-(5-methyl-2-phenyl-oxazol-4-yl)-ethoxy]-benzyloxy}-benzoic acid] | 142 to 143 |
| COc1cccc(OCc2ccc(OCc3nc(-c4ccccc4)oc3C)cc2)c1C(=O)O [Compd 21-9, 2-Methoxy-6-[4-(5-methyl-2-phenyl-oxazol-4-ylmethoxy)-benzyloxy]-benzoic acid] | 180 to 181 |
| COc1cccc(OCc2ccc(OCCc3nc(-c4ccccc4)oc3C)cc2)c1C(=O)O [Compd 21-10, 2-Methoxy-6-{4-[2-(5-methyl-2-phenyl-oxazolyl)-ethoxy]-benzyloxy}-benzoic acid] | 183 to 184 |
| Cc1oc(-c2ccccc2)nc1COc1ccc(COc2cc(Cl)ccc2C(=O)O)cc1 [Compd 21-11, 4-Chloro-2-[4-(5-methyl-2-phenyl-oxazol-4-ylmethoxy)-benzyloxy]-benzoic acid] | 155 to 156 |
| Cc1oc(-c2ccccc2)nc1CCOc1ccc(COc2cc(Cl)ccc2C(=O)O)cc1 [Compd 21-12, 4-Chloro-2-{4-[2-(5-methyl-2-phenyl-oxazol-4-yl)-ethoxy]-benzyloxy}benzoic acid] | 148 to 149 |
| Cc1oc(-c2ccccc2)nc1COCc1ccc(COc2cc(Cl)ccc2C(=O)O)cc1 [Compd 21-19, 4-Chloro-2-[4-(5-methyl-2-phenyl-oxazol-4-ylmethoxymethyl)-benzyloxy]-benzoic acid] | 151 |
